Here are results for 7 compounds from US20260314599A1, “NEW USE OF PYDIFLUMETOFEN” (SYNGENTA CROP PROTECTION AG, priority 2022, published 2026).

For assay [1], the system named is Ustilaginoidea virens. In words: In vitro activity of pydiflumetofen and other active ingredients against rice false smut, mycelial growth method (Example 2). It is filed as cell-based. The following applies: for EC50: mycelial growth, same protocol as Example 1. The protocol: (§1) Ustilaginoidea virens, the pathogens that cause rice false smut, were isolated from infected rice tissues and stored at 4° C. Pathogen was applied to the PSA plate and incubated at 28° C. for 7 days. Mycelial plugs at the edge of the colony were prepared by hole puncher with a diameter of 5 mm. Pydiflumetofen was dissolved into dimethyl sulfoxide (DMSO) to get 4×10^4 μg/mL for stock solution. Mixing PSA culture medium with stock solution of pydiflumetofen to get different series of concentration: 0, 0.0005, 0.0010, 0.0025, 0.0040, 0.0055, and 0.007 μg/mL. Using the mycelial growth method, the mycelial plugs were shifted to the center of PSA medium plates containing different pydiflumetofen concentrations. […] EC50 values were determined by the fitted regression line of the log-transformed percentage inhibition plotted against the log-transformed fungicide concentration.
Using the same protocol as for Example 1 (above), the activity of pydiflumetofen against rice false smut was compared to that of other fungicidal active ingredients.
EC50 values were determined by the fitted regression line of the log-transformed percentage inhibition plotted against the log-transformed fungicide concentration. The lower the EC50 value, the higher the activity.

Assay [2] deals with rice false smut. In words: Field trial, efficacy against rice false smut at 77 days after application (Example 4). It is filed as in vivo, Ustilaginoidea virens. To be noted: 75 gai/ha. The source says:
(§2) • Application Method: Foliar Spray • Water Volume: 450 L/ha • Number of Applications: 1 • Application Timing: BBCH 45-47

Assay [3] concerns rice false smut. In words: Field trial, efficacy against rice false smut at 38 days after application (Example 3). The class given is in vivo, Ustilaginoidea virens. The following applies: 60-75 gai/ha.
Description: as §2
A scale/index of 0 to 9 was used to define the level of disease severity, wherein 0 represents a healthy plant and 9 represents high levels/severe symptoms of disease. Each plant was graded on this 0 to 9 scale and the Disease Index calculated using the following formula:
Disease Index (DI)=[sum(class frequency×scpre of rating class)]/[(total number of plants)×(maximal disease index)]×100.

Assay [4] deals with Ustilaginoidea virens. In words: In vitro activity against rice false smut by mycelial growth method (Example 1). It is filed as cell-based. To be noted: for Average mycelium growth diameter: untreated 35.63; for Mycelium diameter, Average: average of 8, untreated 40.63; for Mycelium diameter: individual replicates 1-8. On the procedure:
Example 1-In Vitro Activity of Pydiflumetofen Against Rice False Smut (Caused by Ustilaginoidea Virens) by Mycelial Growth Method
as §1
As stated above, EC50 values were determined by the fitted regression line of the log-transformed percentage inhibition plotted against the log-transformed fungicide concentration. The lower the EC50 value, the higher the activity.

Where [5] appears, read: Ustilaginoidea virens, read-out: EC50.

In brackets after ≈: the same amount, converted by molar mass. Several values for one entry are separate records, joined by “and”; a condition that tells them apart may be missing. Equal entries are not always repeated.

Consider `CC(C1CC1)C(O)(Cn1cncn1)c1ccc(Cl)cc1` (stereo not drawn) [Cyproconazole], for which the EC50 in assay [1] (setting [5]) worked out at 0.0387 µg/mL (≈ 0.133 µM).

Consider `CC1(C)CCC(Cc2ccc(Cl)cc2)C1(O)Cn1cncn1` (stereo not drawn) [Metconazole], for which the EC50 in assay [1] (setting [5]) came out at 0.041 µg/mL (≈ 0.128 µM).

On to `CCCC1COC(Cn2cncn2)(c2ccc(Cl)cc2Cl)O1` (stereo not drawn) [Propiconazole], for which the EC50 in assay [1] (setting [5]) was found to be 0.0205 µg/mL (≈ 0.0599 µM).

`OC(Cc1ccccc1Cl)(Cn1nc[nH]c1=S)C1(Cl)CC1` (stereo not drawn) [Prothioconazole]: the EC50 in assay [1] (setting [5]) is 3.11 µg/mL (≈ 9.03 µM).

One may read the inhibition as the drop in the measured response relative to a control, in per cent. In the case of `CON(C(=O)c1cn(C)nc1C(F)F)C(C)Cc1c(Cl)cc(Cl)cc1Cl` (stereo not drawn) [Pydiflumetofen, 3-(difluoromethyl)-N-methoxy-1-methyl-N-[1-methyl-2-(2,4,6-trichloro-phenyl)ethyl]-1H-pyrazole-4-carboxamide], the “control against rice false smut in the field (in words)” value in assay [2] and in assay [3] was “good control” each time. In addition, the EC50 was 0.0045 µg/mL (≈ 0.0105 µM) in assay [1] (setting [5]) and 0.0037 µg/mL (≈ 0.00867 µM) in assay [4] (Ustilaginoidea virens, 336 h, mycelial growth, PSA, 28° C., 14 days). The “activity against Ustilaginoidea virens (in words)” value in assay [1] (compared to fungicides commonly used to treat rice false smut) and in assay [4] (mycelial growth) was “very high activity” each time. The “Average mycelium growth diameter” value is recorded as 33.13 mm in assay [4] (0.0005 μg/mL, 28° C., 14 days); 28.63 mm in assay [4] (0.0010 μg/mL, 28° C., 14 days); 20.75 mm in assay [4] (0.0025 μg/mL, 28° C., 14 days); 19.50 mm in assay [4] (0.0040 μg/mL, 28° C., 14 days); 17.75 mm in assay [4] (0.0055 μg/mL, 28° C., 14 days); 7.75 mm in assay [4] (0.0070 μg/mL, 28° C., 14 days). In addition, the “Mycelium diameter, Average” value is recorded as 38.13 mm in assay [4] (0.0005 μg/mL, 28° C., 14 days); 33.63 mm in assay [4] (0.0010 μg/mL, 28° C., 14 days); 25.75 mm in assay [4] (0.0025 μg/mL, 28° C., 14 days); 24.50 mm in assay [4] (0.0040 μg/mL, 28° C., 14 days); 22.75 mm in assay [4] (0.0055 μg/mL, 28° C., 14 days); 12.75 mm in assay [4] (0.0070 μg/mL, 28° C., 14 days). The Mycelium diameter in assay [4] (0.0005 μg/mL, 28° C., 14 days) is 37 mm and 38 mm (5×) and 39 mm (2×); in assay [4] (0.0010 μg/mL, 28° C., 14 days), 32 mm (2×) and 34 mm (2×) and 33 mm (2×) and 35 mm and 36 mm; in assay [4] (0.0025 μg/mL, 28° C., 14 days), 25 mm (4×) and 26 mm (3×) and 28 mm; in assay [4] (0.0040 μg/mL, 28° C., 14 days), 24 mm (4×) and 25 mm (4×); in assay [4] (0.0055 μg/mL, 28° C., 14 days), 22 mm (3×) and 23 mm (4×) and 24 mm; in assay [4] (0.0070 μg/mL, 28° C., 14 days) it was 13 mm (6×) and 12 mm (2×). Also, in assay [4] (Ustilaginoidea virens, 336 h, 0.0005 μg/mL, 28° C., 14 days), at 0.0005 µg/mL the inhibition was 7.02%. In assay [4] (Ustilaginoidea virens, 336 h, 0.0010 μg/mL, 28° C., 14 days), this compound returned an inhibition at 0.001 µg/mL of 19.6%. In addition, in assay [4] (Ustilaginoidea virens, 336 h, 0.0025 μg/mL, 28° C., 14 days), testing at 0.0025 µg/mL gave an inhibition of 41.8%. In addition, the inhibition at 0.004 µg/mL in assay [4] (Ustilaginoidea virens, 336 h, 0.0040 μg/mL, 28° C., 14 days) amounted to 45.3%. Moreover, in assay [4] (Ustilaginoidea virens, 336 h, 0.0055 μg/mL, 28° C., 14 days), the inhibition at 0.0055 µg/mL was determined as 50.2%. In assay [4] (Ustilaginoidea virens, 336 h, 0.0070 μg/mL, 28° C., 14 days), this compound gave an inhibition at 0.007 µg/mL of 78.2%.

`CC(C)(C)C(O)(CCc1ccc(Cl)cc1)Cn1cncn1` (stereo not drawn) [Tebuconazole]: the EC50 in assay [1] (setting [5]) stood at 0.0761 µg/mL (≈ 0.247 µM).

In turn, Epoxiconazole came in with an EC50 in assay [1] of 0.0086 ppm.
